What is called IC50 is the concentration at which inhibition is half-maximal. The melting point is the temperature of the solid-liquid transition.

Read-outs that look alike come from different tables or passages of the source. Bounds are passed on as bounds.

The text below walks through data of patent US8273773B2 (priority 2008, dated 2012).

For data set [1], the system named is HCV replicon cells (2209-23), genotype 1b replicon. In words: HCV Replicon Assay (Renilla luciferase reporter). It counts as cell-based, HCV genotype 1b replicon in human hepatoma Huh7 cells. The conditions noted are these: 2209-23 cells, three days incubation. Background: In antiviral work, replicon cells carry a viral genome segment that copies itself.
For data set [2], the target named is T1, HCV polymerase (NS5B570n-Con1) (Hepatitis C virus genotype 1b, UniProt Q9WMX2).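 Also: recombinant His-tagged enzyme from E. coli, radiolabeled nucleotide incorporation into acid-insoluble RNA read by scintillation after filtration, no-enzyme background subtracted, activity relative to positive control.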
T1 construct: contains a 21 amino acid deletion at the C-terminus relative to the full-length HCV polymerase; 6-histidine (N); made in house; host or cells: E. coli strain BL21(DE) pLysS (pET17b)
Nature of the data set: biochemical. Further details: species or system HCV Con1 strain.

Another data set concerns HCV. The conditions noted are these: monotherapy; cited from earlier work.
Setting [3] is: IC50 HCV NS5B RNA Polymerase Assay (values with asterisk), values with asterisk: cIRES RNA template, 3 nM NS5B570n-Con1.

With `COc1c(/C=C/c2ccc(NS(C)(=O)=O)cc2)cc(-c2ccc[nH]c2=O)cc1C(C)(C)C` [I-126, N-(4-{(E)-2-[3-tert-Butyl-2-methoxy-5-(2-oxo-1,2-dihydro-pyridin-3-yl)-phenyl]-vinyl}-phenyl)-methanesulfonamide], half-maximal inhibition in data set [1] (Hepatitis C virus, 72 h) (IC50) was put at 6 nM. With `Cc1cc(C(=O)O)ccc1[N+](=O)[O-]` [I-129], the IC50 in data set [2] (values without asterisk, 20 nM NS5B570n-Con1 enzyme, 20 nM cIRES RNA template, read-out: IC50 HCV NS5B RNA Polymerase Assay) came out at 7 nM; in data set [1], 101 nM. Consider `COc1c(/C=C/c2ccc(NS(C)(=O)=O)cc2)cc(-c2cc(F)c[nH]c2=O)cc1C(C)(C)C` [I-142, N-(4-{(E)-2-[3-tert-Butyl-5-(5-fluoro-2-oxo-1,2-dihydro-pyridin-3-yl)-2-methoxy-phenyl]-vinyl}-phenyl)-methanesulfonamide], for which 78 nM corresponded to half-maximal inhibition in data set [1] (Hepatitis C virus, 72 h) (IC50). On to `COc1c(/C=C/c2ccc(NS(C)(=O)=O)cc2CO)cc(-c2cc(F)c[nH]c2=O)cc1C(C)(C)C` [I-187, N-(4-{(E)-2-[3-tert-Butyl-5-(5-fluoro-2-oxo-1,2-dihydro-pyridin-3-yl)-2-methoxy-phenyl]-vinyl}-3-hydroxymethyl-phenyl)-methanesulfonamide], for which the IC50 in data set [2] (setting [3]) was 3 nM; in data set [1] (Hepatitis C virus, 72 h), 43.2 nM. Turning to `COc1c(/C=C/c2ccc(NS(C)(=O)=O)cc2C(=O)O)cc(-c2ccc[nH]c2=O)cc1C(C)(C)C` [I-203, 2-{(E)-2-[3-tert-Butyl-2-methoxy-5-(2-oxo-1,2-dihydro-pyridin-3-yl)-phenyl]-vinyl}-5-methanesulfonylamino-benzoic acid], the melting point was 260 to 262 °C. The compound also yielded an IC50 in data set [1] (Hepatitis C virus, 72 h) of 10 nM. Turning to `COc1c(/C=C/c2ccccc2C(C)=O)cc(-c2ccc[nH]c2=O)cc1C(C)(C)C` [I-243, 3-{3-[(E)-2-(2-Acetyl-phenyl)-vinyl]-5-tert-butyl-4-methoxy-phenyl}-1H-pyridin-2-one], inhibition in data set [1] (Hepatitis C virus, 72 h) was half-maximal at 208 nM (IC50). As for `COc1c(/C=C/c2ccc(NS(C)(=O)=O)cc2)cc(-c2ccc[nH]c2=O)cc1C1(Cl)CC1` [I-267], in data set [1] (Hepatitis C virus, 72 h), 10.2 nM corresponded to half-maximal inhibition (IC50). The same measure, in the same setting: the result for `COc1c(/C=C/c2ccc(NS(C)(=O)=O)cc2)cc(-c2ccc[nH]c2=O)cc1C1(C#N)CC1` [I-268, N-(4-{(E)-2-[3-(1-Cyano-cyclopropyl)-2-methoxy-5-(2-oxo-1,2-dihydro-pyridin-3-yl)-phenyl]-vinyl}-phenyl)-methanesulfonamide] reads 22 nM.

For the compound `COc1c(/C=C/c2ccc(NS(C)(=O)=O)cc2)cc(-c2ccc[nH]c2=O)cc1C1(C(F)F)CC1` [I-270], the IC50 in data set [2] (setting [3]) worked out at 1 nM; in data set [1] (Hepatitis C virus, 72 h), 34.4 nM. For the compound `CC1(C)COc2c(-c3cc(F)c[nH]c3=O)cc(/C=C/c3ccc(NS(C)(=O)=O)cc3)cc21` [II-3], the melting point lay in the range of 264 to 266 °C. In addition, half-maximal inhibition in data set [1] (Hepatitis C virus, 72 h) (IC50) was put at 54.6 nM. `CC1(C)COc2c(-c3ccc[nH]c3=O)cc(NC(=O)c3ccc(NS(C)(=O)=O)cc3)cc21` [II-4, N-[3,3-Dimethyl-7-(2-oxo-1,2-dihydro-pyridin-3-yl)-2,3-dihydro-benzofuran-5-yl]-4-methanesulfonylamino-benzamide] had a melting point greater than 300 °C. The compound further yielded an IC50 in data set [2] (IC50 HCV NS5B RNA Polymerase Assay, values without asterisk, 20 nM NS5B570n-Con1 enzyme, 20 nM cIRES RNA template) of 33 nM. `COc1c(/C=C/c2ccc(NS(C)(=O)=O)cc2)cc(-c2ccc[nH]c2=O)c2c1C(C)(C)CC2` [II-5, N-(4-{(E)-2-[4-Methoxy-3,3-dimethyl-7-(2-oxo-1,2-dihydro-pyridin-3-yl)-indan-5-yl]-vinyl}-phenyl)-methanesulfonamide] had a melting point of 283 to 286.6 °C. In data set [2] (setting [3]), this compound yielded an IC50 of 1 nM.

In the case of `NC(=O)c1ncn([C@@H]2O[C@H](CO)[C@@H](O)[C@H]2O)n1` [ribavirin, 1-((2R,3R,4S,5R)-3,4-Dihydroxy-5-hydroxymethyl-tetrahydro-furan-2-yl)-1H-[1,2,4]triazole-3-carboxylic acid amide], the “patients in whom serum amino transferase levels are reduced to normal” value with HCV is listed as 40%.
